Data on seven molecules can be found in patent publication US11980636B2, “Treatment of hematological disorders” (Jazz Pharmaceuticals Ireland Limited, priority 2020, dated 2024).

As a reminder, the IC50 is the midpoint of a concentration-inhibition curve. What is called clearance is the rate of elimination divided by the concentration. By Vd is commonly meant the apparent volume that relates the amount in the body to the concentration in plasma or blood. The term Kd denotes a measure of binding affinity in units of concentration.

Like-named read-outs stand apart in the source and are kept apart here.

In data set [1] the test system is KG-1 cells. The experiment in a line: CellTiter-Glo cell viability, 72 hours. Conditions: Homo sapiens. The data set is classed as cell-based. How it is done:
(§1) AML cell lines used were: HL-60 (ATCC), SKM-1 (Sekisui XenoTech) and KG-1 (ATCC). Acute Lymphoid Leukemia (ALL) cell lines used were: CCRF-CEM (ATCC), MOLT-3 (ATCC), and Jurkat E6-1 (ATCC). […] After 24 hours, cells were dosed with CPX-351, venetoclax, azacitidine, decitabine, and/or cytarabine. CPX-351 and cytarabine were each dosed in a titration starting at 50 μM (for CPX-351, this was measured by its cytarabine content), with 8 additional serial dilutions of 5× each and a final group with no treatment. […] For the combination treatment of CPX-351 and venetoclax, the same titrations were used as in single-agent treatment. About 72 hours after dosing, cell viability was measured by CellTiter-Glo assay (Promega) according to manufacturer instructions; luminescence was measured and IC50 values were estimated by Cytation Multi-Mode reader (BioTek).

In data set [2] the test system is Jurkat E6-1 cells. The experiment in a line: CellTiter-Glo cell viability, 72 hours. The data set is classed as cell-based. The conditions noted are these: Homo sapiens. How it is done:
as §1

Data set [3] concerns HL-60 cells. Put plainly: CellTiter-Glo cell viability, 72 hours. The conditions noted are these: Homo sapiens. The data set is classed as cell-based. How it is done:
as §1
On the technique in general: ATP-based viability assays read luminescence as a measure of living cells.

The test system of data set [4] is SKM-1 cells. Put plainly: CellTiter-Glo cell viability, 72 hours. The data set is classed as cell-based. The conditions noted are these: Homo sapiens. How it is done: as §1
Data set [5] relates to MOLT-3 cells. The experiment in a line: CellTiter-Glo cell viability, 72 hours. The data set is classed as cell-based. Conditions: Homo sapiens. How it is done: as §1
The test system of data set [6] is CCRF-CEM cells. The experiment in a line: CellTiter-Glo cell viability, 72 hours. The data set is classed as cell-based. Conditions: Homo sapiens, read-out: IC50 values. How it is done:
as §1

Data set [7] in a line: clinical. The conditions noted are these: human, in vivo, intravenous; for Vd: 195 mg.
For data set [8] the following is noted: for Vp (Vp2), peripheral volume of distribution: population mean coefficient at BSA 1.95 (daunorubicin dose 86 mg), following CPX-351; for CLd (CLd2), distribution clearance: population mean coefficient at BSA 1.95, following CPX-351.
In data set [9] the target is T1, GCSF receptor (Homo sapiens, UniProt Q99062).
T1 sequence (Q99062 25-836): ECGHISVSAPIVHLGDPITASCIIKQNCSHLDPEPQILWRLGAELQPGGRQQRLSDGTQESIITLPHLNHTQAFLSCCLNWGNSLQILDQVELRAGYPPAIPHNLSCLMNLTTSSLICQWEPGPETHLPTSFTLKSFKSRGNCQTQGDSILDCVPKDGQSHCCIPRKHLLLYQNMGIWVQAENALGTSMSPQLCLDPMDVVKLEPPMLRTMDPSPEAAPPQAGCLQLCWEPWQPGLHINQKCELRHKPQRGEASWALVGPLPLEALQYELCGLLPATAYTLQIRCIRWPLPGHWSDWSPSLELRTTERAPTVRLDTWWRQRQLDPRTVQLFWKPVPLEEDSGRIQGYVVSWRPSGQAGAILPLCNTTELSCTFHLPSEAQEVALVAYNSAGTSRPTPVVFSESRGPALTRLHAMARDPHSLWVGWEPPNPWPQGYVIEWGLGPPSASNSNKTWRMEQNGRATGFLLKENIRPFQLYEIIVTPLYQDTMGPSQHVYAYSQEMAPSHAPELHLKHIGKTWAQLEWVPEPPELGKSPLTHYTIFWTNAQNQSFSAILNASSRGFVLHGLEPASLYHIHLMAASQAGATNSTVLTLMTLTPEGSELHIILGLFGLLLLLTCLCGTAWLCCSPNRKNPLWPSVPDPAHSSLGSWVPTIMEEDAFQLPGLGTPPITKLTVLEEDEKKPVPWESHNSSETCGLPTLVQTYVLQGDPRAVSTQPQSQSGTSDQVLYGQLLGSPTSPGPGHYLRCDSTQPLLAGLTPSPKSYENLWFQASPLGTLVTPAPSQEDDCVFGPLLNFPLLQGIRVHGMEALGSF
Conditions: population mean, cited from earlier work; for Kd: read-out: KD, equilibrium dissociation constant for GCSF and GCSF receptor.

The conditions of data set [10]: in vivo; cited from earlier work.
The mark [11] stands for this setting: KG-1, AML, CPX-351 by cytarabine content, read-out: IC50 values.
Where [12] appears, read: Jurkat E6-1, ALL, CPX-351 by cytarabine content, read-out: IC50 values.
Setting [13] is: HL-60, HL60, AML, CPX-351 by cytarabine content, read-out: IC50 values.
Where [14] appears, read: SKM-1, AML, CPX-351 by cytarabine content, read-out: IC50 values.
Where [15] appears, read: MOLT-3, ALL, CPX-351 by cytarabine content, read-out: IC50 values.
The mark [16] stands for this setting: ALL, CPX-351 by cytarabine content.

Turning to `Nc1ncn([C@@H]2O[C@H](CO)[C@@H](O)[C@H]2O)c(=O)n1` [Azacitidine], the IC50 in [1] (setting [11]) worked out at 4000 nM; in data set [2] (setting [12]) it was 980 nM; in [3] (setting [13]) it was 1420 nM; in data set [4] (setting [14]) it was 420 nM; in [5] (setting [15]), 4030 nM; in data set [6] (setting [16]), 1580 nM.

On to `Nc1ccn([C@@H]2O[C@H](CO)[C@@H](O)[C@@H]2O)c(=O)n1` [Cytarabine, 1-β-D-arabinofuranosylcytosine], for which the IC50 in data set [1] (setting [11]) was 240 nM; in [2] (setting [12]), 40 nM; in data set [3] (setting [13]), 850 nM; in data set [4] (setting [14]), 540 nM; in data set [5] (setting [15]), 80 nM; in [6] (setting [16]), 30 nM. This molecule had a clearance in [7] of 1.77 mL/min. The molecule also returned a Vd in [7] of 5.12 L. Further, in data set [8], the “Vp (Vp2), peripheral volume of distribution” value is reported as 0.214 · (BSA/1.95)^1 L. For the same molecule, the “CLd (CLd2), distribution clearance” value in data set [8] is given as 0.00646 · (BSA/1.95)^1 L/h.

In [7], `COc1cccc2c1C(=O)c1c(O)c3c(c(O)c1C2=O)C[C@@](O)(C(C)=O)C[C@@H]3O[C@H]1C[C@H](N)[C@H](O)[C@H](C)O1` [Daunorubicin] gave a clearance of 2.42 mL/min and a Vd of 4.34 L. Besides, in data set [8], the “Vp (Vp2), peripheral volume of distribution” value is given as 0.523 · (BSA/1.95)^1 · L and the “CLd (CLd2), distribution clearance” value was 0.0258 · (BSA/1.95)^1 L/h.

As to `Nc1ncn([C@H]2C[C@H](O)[C@@H](CO)O2)c(=O)n1` [Decitabine], the IC50 in data set [1] (KG-1, read-out: IC50 values) was determined as 360 nM; in data set [2] (Jurkat E6.1, read-out: IC50 values), 100 nM; in data set [3] (HL-60, read-out: IC50 values) it was 820 nM; in [4] (SKM-1, read-out: IC50 values) it was 240 nM; in [5] (MOLT-3, read-out: IC50 values) it was 230 nM; in data set [6] it was 40 nM.

Take `CC1(C)CCC(CN2CCN(c3ccc(C(=O)NS(=O)(=O)c4ccc(NCC5CCOCC5)c([N+](=O)[O-])c4)c(Oc4cnc5[nH]ccc5c4)c3)CC2)=C(c2ccc(Cl)cc2)C1` [Venetoclax]: the IC50 in [1] (setting [11]) is 2100 nM; in [2] (setting [12]) it was 3500 nM; in data set [3] (setting [13]) it was 50 nM; in data set [4] (setting [14]) it was 1500 nM; in data set [5] (setting [15]), 1000 nM; in data set [6] (setting [16]) it was 2800 nM.

B1: Filgrastim: exogenous GCSF agent (protein, UniProt P09919 31-207, looked up)
Granulocyte …: TPLGPASSLPQSFLLKCLEQVRKIQGDGAALQEKLVSECATYKLCHPEELVLLGHSLGIPWAPLSSCPSQALQLAGCLSQLHSGLFLYQGLLQALEGISPELGPTLDTLQLDVADFATTIWQQMEELGMAPALQPTQGAMPAFASAFQRRAGGVLVASHLQSFLEVSYRVLRHLAQP
modifications: filgrastim, N-terminal Met
notes: exogenous GCSF agent
In the case of B1, in [9], the “kint, first-order rate constant for internalization of GCSF receptor complexed with filgrastim or pegfilgrastim” value is 0.113 h⁻¹ and the Kd is 0.0237 nM. In addition, in data set [10], the “CL, clearance” value is 0.833 · (WTKG/70)^0.641 L/h; the “D2, duration of the zero-order absorption process” value is on record as 6.6 h; the “F1, bioavailability of first-order absorption process” value was 0.105; the “F2, bioavailability of zero-order absorption process” value is 0.586. For the same molecule, in data set [10], the “Vc, central volume of distribution” value is recorded as 3.12 · (WTKG/70)^0.943 L and the “ka, first-order absorption rate constant” value is 0.403 h⁻¹.

B2: Pegfilgrastim: exogenous GCSF agent (protein, UniProt P09919 31-207, looked up)
Granulocyte …: TPLGPASSLPQSFLLKCLEQVRKIQGDGAALQEKLVSECATYKLCHPEELVLLGHSLGIPWAPLSSCPSQALQLAGCLSQLHSGLFLYQGLLQALEGISPELGPTLDTLQLDVADFATTIWQQMEELGMAPALQPTQGAMPAFASAFQRRAGGVLVASHLQSFLEVSYRVLRHLAQP
modifications: pegfilgrastim; PEGylated, N-terminal Met
notes: exogenous GCSF agent
As to B2, in [9], the “kint, first-order rate constant for internalization of GCSF receptor complexed with filgrastim or pegfilgrastim” value was 0.113 h⁻¹ and the Kd was 0.0959 nM. Further, in [10], the “F1, bioavailability of first-order absorption process” value is given as 0.646; the “Vc, central volume of distribution” value was 5.76 · (WTKG/70)^0.943 L; the clearance was 6.03 mL/min; the “ka, first-order absorption rate constant” value was 0.0188 h⁻¹.
